Results taken from patent publication US9113629B2, “4-amino-6-(4-substituted-phenyl)-picolinates and 6-amino-2-(4-substituted-phenyl)-pyrimidine-4-carboxylates and their use as herbicides” (DOW AGROSCIENCES LLC, priority 2013, dated 2015).
Like-named read-outs stand apart in the source and are kept apart here.

Assays:
[1] = test system: Key Broadleaf Weed and Crop Species; assay: Post-emergent Test II herbicidal activity (Table 5); assay type: in vivo; settings: post-emergence, 336 h, 14 days after application; for pest or weed control at 70 g/ha: application rate 70 g ai/ha; for pest or weed control at 140 g/ha: application rate 140 g ai/ha
In short: (§1)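 Visual injury ratings (0 = no injury, 100 = complete kill) were taken 14 d after treatment, relative to untreated plants. Seedlings at the first–second true leaf stage received overhead spray at 187 L/ha; the highest rate was serially diluted to ½×, ¼×, ⅛× and 1/16×.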

[2] = test system: Key Grass and Sedge Weeds as well as Grass Crops; assay: Post-emergent Test II herbicidal activity (Table 6); assay type: in vivo; settings: post-emergence, 336 h
In short: as §1

[3] = ABUTH: velvetleaf (Abutilon theophrasti), read-out: Visual Growth Reduction (%) 14 Days After Application, ABUTH
[4] = AMARE: redroot pigweed (Amaranthus retroflexus), read-out: Visual Growth Reduction (%) 14 Days After Application, AMARE
[5] = BRSNN: oilseed-rape, canola (Brassica napus), read-out: Visual Growth Reduction (%) 14 Days After Application, BRSNN
[6] = CHEAL: lambsquarters (Chenopodium album), read-out: Visual Growth Reduction (%) 14 Days After Application, CHEAL
[7] = EPHHL: wild poinsettia (Euphorbia heterophylla), read-out: Visual Growth Reduction (%) 14 Days After Application, EPHHL
[8] = HELAN: sunflower (Helianthus annuus), read-out: Visual Growth Reduction (%) 14 Days After Application, HELAN
[9] = VIOTR: wild pansy (Viola tricolor), read-out: Visual Growth Reduction (%) 14 Days After Application, VIOTR
[10] = CYPES: yellow nutsedge (Cyperus esculentus), 70 g ai/ha, read-out: Visual Growth Reduction (%) 14 Days After Application, CYPES
[11] = CYPES: yellow nutsedge (Cyperus esculentus), 140 g ai/ha, read-out: Visual Growth Reduction (%) 14 Days After Application, CYPES
[12] = DIGSA: crabgrass (Digitaria sanguinalis), 70 g ai/ha, read-out: Visual Growth Reduction (%) 14 Days After Application, DIGSA
[13] = DIGSA: crabgrass (Digitaria sanguinalis), 140 g ai/ha, read-out: Visual Growth Reduction (%) 14 Days After Application, DIGSA
[14] = ECHCG: barnyardgrass (Echinochloa crus-galli), 70 g ai/ha, read-out: Visual Growth Reduction (%) 14 Days After Application, ECHCG
[15] = ECHCG: barnyardgrass (Echinochloa crus-galli), 140 g ai/ha, read-out: Visual Growth Reduction (%) 14 Days After Application, ECHCG
[16] = ORYSA: rice (Oryza sativa), crop, 70 g ai/ha, read-out: Visual Growth Reduction (%) 14 Days After Application, ORYSA
[17] = ORYSA: rice (Oryza sativa), crop, 140 g ai/ha, read-out: Visual Growth Reduction (%) 14 Days After Application, ORYSA
[18] = SETFA: giant foxtail (Setaria faberi), 140 g ai/ha, read-out: Visual Growth Reduction (%) 14 Days After Application, SETFA
[19] = SORVU: grain sorghum (Sorghum vulgare), 70 g ai/ha, read-out: Visual Growth Reduction (%) 14 Days After Application, SORVU
[20] = SORVU: grain sorghum (Sorghum vulgare), 140 g ai/ha, read-out: Visual Growth Reduction (%) 14 Days After Application, SORVU
[21] = TRZSS (wheat, Triticum aestivum), crop, 70 g ai/ha, read-out: Visual Growth Reduction (%) 14 Days After Application, TRZSS
[22] = TRZSS (wheat, Triticum aestivum), crop, 140 g ai/ha, read-out: Visual Growth Reduction (%) 14 Days After Application, TRZSS
[23] = ZEAMX: maize, corn (Zea mays), crop, 70 g ai/ha, read-out: Visual Growth Reduction (%) 14 Days After Application, ZEAMX
[24] = ZEAMX: maize, corn (Zea mays), crop, 140 g ai/ha, read-out: Visual Growth Reduction (%) 14 Days After Application, ZEAMX

| Structure (SMILES) | melting point [°C] | pest or weed control at 70 g/ha [1, 3] [%] | pest or weed control at 140 g/ha [1, 3] [%] | pest or weed control at 70 g/ha [1, 4] [%] | pest or weed control at 140 g/ha [1, 4] [%] | pest or weed control at 70 g/ha [1, 5] [%] | pest or weed control at 140 g/ha [1, 5] [%] | pest or weed control at 70 g/ha [1, 6] [%] | pest or weed control at 140 g/ha [1, 6] [%] | pest or weed control at 70 g/ha [1, 7] [%] | pest or weed control at 140 g/ha [1, 7] [%] | pest or weed control at 70 g/ha [1, 8] [%] | pest or weed control at 140 g/ha [1, 8] [%] | pest or weed control at 70 g/ha [1, 9] [%] | pest or weed control at 140 g/ha [1, 9] [%] | pest or weed control at 70 g/ha [2, 10] [%] | pest or weed control at 140 g/ha [2, 11] [%] | pest or weed control at 70 g/ha [2, 12] [%] | pest or weed control at 140 g/ha [2, 13] [%] | pest or weed control at 70 g/ha [2, 14] [%] | also measured |
| --- | --- | --- | --- | --- | --- | --- | --- | --- | --- | --- | --- | --- | --- | --- | --- | --- | --- | --- | --- | --- | --- |
| COC(=O)c1nc(-c2ccc(C(F)(F)F)c(F)c2)cc(N)c1Cl [Compound 29, methyl 4-amino-3-chloro-6-(3-fluoro-4-(trifluoromethyl)phenyl)picolinate] | 145 to 146 | 85 to 94 | 85 to 94 | 60 to 74 | 60 to 74 | 45 to 59 | 60 to 74 | 95 to 100 | 95 to 100 | 95 to 100 | 95 to 100 | 85 to 94 | 85 to 94 | 0 to 29 | 0 to 29 | – | – | – | – | – | pest or weed control at 70 g/ha ([2]; Triticum aestivum, TRZSS (wheat), application rate 70 g ai/ha, read-out: Visual Growth Reduction (%) 14 Days After Application, TRZSS): 0 to 29%; pest or weed control at 140 g/ha ([2]; Triticum aestivum, TRZSS (wheat), application rate 140 g ai/ha, read-out: Visual Growth Reduction (%) 14 Days After Application, TRZSS): 0 to 29%; pest or weed control at 70 g/ha ([2]; CYPES: yellow nutsedge (Cyperus esculentus), application rate 70 g ai/ha, read-out: Visual Growth Reduction (%) 14 Days After Application, CYPES): 30 to 44%; pest or weed control at 140 g/ha ([2]; CYPES: yellow nutsedge (Cyperus esculentus), application rate 140 g ai/ha, read-out: Visual Growth Reduction (%) 14 Days After Application, CYPES): 45 to 59%; pest or weed control at 70 g/ha ([2]; DIGSA: crabgrass (Digitaria sanguinalis), application rate 70 g ai/ha, read-out: Visual Growth Reduction (%) 14 Days After Application, DIGSA): 30 to 44%; pest or weed control at 140 g/ha ([2]; DIGSA: crabgrass (Digitaria sanguinalis), application rate 140 g ai/ha, read-out: Visual Growth Reduction (%) 14 Days After Application, DIGSA): 60 to 74%; pest or weed control at 70 g/ha ([2]; ECHCG: barnyardgrass (Echinochloa crus-galli), application rate 70 g ai/ha, read-out: Visual Growth Reduction (%) 14 Days After Application, ECHCG): 0 to 29%; pest or weed control at 140 g/ha ([2]; ECHCG: barnyardgrass (Echinochloa crus-galli), application rate 140 g ai/ha, read-out: Visual Growth Reduction (%) 14 Days After Application, ECHCG): 0 to 29%; pest or weed control at 70 g/ha ([2]; ORYSA: rice (Oryza sativa), application rate 70 g ai/ha, read-out: Visual Growth Reduction (%) 14 Days After Application, ORYSA): 0 to 29%; pest or weed control at 140 g/ha ([2]; ORYSA: rice (Oryza sativa), application rate 140 g ai/ha, read-out: Visual Growth Reduction (%) 14 Days After Application, ORYSA): 0 to 29%; pest or weed control at 70 g/ha ([2]; SETFA: giant foxtail (Setaria faberi), application rate 70 g ai/ha, read-out: Visual Growth Reduction (%) 14 Days After Application, SETFA): 0 to 29%; pest or weed control at 140 g/ha ([2]; SETFA: giant foxtail (Setaria faberi), application rate 140 g ai/ha, read-out: Visual Growth Reduction (%) 14 Days After Application, SETFA): 0 to 29%; pest or weed control at 70 g/ha ([2]; SORVU: grain sorghum (Sorghum vulgare), application rate 70 g ai/ha, read-out: Visual Growth Reduction (%) 14 Days After Application, SORVU): 45 to 59%; pest or weed control at 140 g/ha ([2]; SORVU: grain sorghum (Sorghum vulgare), application rate 140 g ai/ha, read-out: Visual Growth Reduction (%) 14 Days After Application, SORVU): 45 to 59%; pest or weed control at 70 g/ha ([2]; ZEAMX: maize, corn (Zea mays), application rate 70 g ai/ha, read-out: Visual Growth Reduction (%) 14 Days After Application, ZEAMX): 0 to 29%; pest or weed control at 140 g/ha ([2]; ZEAMX: maize, corn (Zea mays), application rate 140 g ai/ha, read-out: Visual Growth Reduction (%) 14 Days After Application, ZEAMX): 0 to 29% |
| COC(=O)c1nc(-c2ccc(Br)c(F)c2F)nc(N)c1OC [Compound 122, methyl 6-amino-2-(4-bromo-2,3-difluorophenyl)-5-methoxypyrimidine-4-carboxylate] | 171 to 172 | 95 to 100 | 95 to 100 | 95 to 100 | 95 to 100 | 95 to 100 | 95 to 100 | 95 to 100 | 95 to 100 | 95 to 100 | 95 to 100 | 85 to 94 | 95 to 100 | 95 to 100 | 85 to 94 | 95 to 100 | 95 to 100 | 45 to 59 | 45 to 59 | 85 to 94 | pest or weed control at 140 g/ha [2, 15]: 95 to 100%; pest or weed control at 70 g/ha [2, 16]: 0 to 29%; pest or weed control at 140 g/ha [2, 17]: 0 to 29%; pest or weed control at 140 g/ha [2, 18]: 95 to 100%; pest or weed control at 70 g/ha [2, 19]: 95 to 100%; pest or weed control at 140 g/ha [2, 20]: 85 to 94%; pest or weed control at 70 g/ha [2, 21]: 45 to 59%; pest or weed control at 140 g/ha [2, 22]: 45 to 59%; pest or weed control at 70 g/ha [2, 23]: 95 to 100%; pest or weed control at 140 g/ha [2, 24]: 95 to 100% |
| COC(=O)c1nc(-c2ccc(I)cc2)cc(N)c1Cl [Compound 158] | – | 95 to 100 | 95 to 100 | 95 to 100 | 95 to 100 | 60 to 74 | 75 to 84 | 95 to 100 | 95 to 100 | 95 to 100 | 95 to 100 | 75 to 84 | 75 to 84 | 0 to 29 | 0 to 29 | 45 to 59 | 45 to 59 | 60 to 74 | 60 to 74 | 60 to 74 | pest or weed control at 140 g/ha [2, 15]: 75 to 84%; pest or weed control at 70 g/ha [2, 16]: 0 to 29%; pest or weed control at 140 g/ha [2, 17]: 0 to 29%; pest or weed control at 70 g/ha ([2]; SETFA: giant foxtail (Setaria faberi), 70 g ai/ha, read-out: Visual Growth Reduction (%) 14 Days After Application, SETFA): 0 to 29%; pest or weed control at 140 g/ha [2, 18]: 0 to 29%; pest or weed control at 70 g/ha [2, 19]: 85 to 94%; pest or weed control at 140 g/ha [2, 20]: 85 to 94%; pest or weed control at 70 g/ha [2, 21]: 0 to 29%; pest or weed control at 140 g/ha [2, 22]: 45 to 59%; pest or weed control at 70 g/ha [2, 23]: 0 to 29%; pest or weed control at 140 g/ha [2, 24]: 0 to 29% |
